Source: US8575158B2, “1-phenyl-substituted heterocyclyl derivatives and their use as prostaglandin D2 receptor modulators” (Actelion Pharmaceuticals Ltd., priority 2010, dated 2013)

The compounds below were run against T1, hCRTH2 receptor (Homo sapiens, UniProt Q9Y5Y4) (assay: Radioligand displacement assay (3H-PGD2) on hCRTH2 receptor membranes). Conditions: antagonistic activity, 3H-PGD2 radioligand displacement, HEK293-hCRTH2 membranes.
T1 construct: expressed in transfected cells; host or cells: HEK293
T1 sequence (Q9Y5Y4 1-395): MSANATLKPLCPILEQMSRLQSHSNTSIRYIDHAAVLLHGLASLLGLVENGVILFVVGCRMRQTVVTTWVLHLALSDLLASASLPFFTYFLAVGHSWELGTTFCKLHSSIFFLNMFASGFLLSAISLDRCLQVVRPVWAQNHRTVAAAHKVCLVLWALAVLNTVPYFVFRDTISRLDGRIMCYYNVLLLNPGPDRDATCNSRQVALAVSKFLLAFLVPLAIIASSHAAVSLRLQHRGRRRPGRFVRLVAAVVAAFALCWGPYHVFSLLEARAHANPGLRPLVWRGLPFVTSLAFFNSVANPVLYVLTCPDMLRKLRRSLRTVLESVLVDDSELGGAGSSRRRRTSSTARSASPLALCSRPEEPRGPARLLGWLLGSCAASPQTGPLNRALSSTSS
Assay type: binding

| Compound | IC50 |
| --- | --- |
| O=C(O)COc1ccc(Cl)cc1[C@@H]1c2ccccc2CCN1C(=O)OCc1noc2ccccc12 [Example 298, (S)-1-(2-Carboxymethoxy-5-chloro-phenyl)-3,4-dihydro-1H-isoquinoline-2-carboxylic acid benzo[d]isoxazol-3-ylmethyl ester] | 2.49 nM |
| O=C(O)COc1ccc(Cl)cc1[C@@H]1c2ccc(F)c(F)c2CCN1C(=O)OCn1ncc2ccccc21 [Example 322, (S)-1-(2-Carboxymethoxy-5-chloro-phenyl)-5,6-difluoro-3,4-dihydro-1H-isoquinoline-2-carboxylic acid indazol-1-ylmethyl ester] | 0.53 nM |
| Cc1csc(COC(=O)N2CCc3cc(F)ccc3[C@H]2c2cc(Cl)ccc2OCC(=O)O)n1 [Example 327, (S)-1-(2-Carboxymethoxy-5-chloro-phenyl)-6-fluoro-3,4-dihydro-1H-isoquinoline-2-carboxylic acid 4-methyl-thiazol-2-ylmethyl ester] | 3.38 nM |
| Cc1cn(CCC(=O)N2CCc3ccccc3C2c2cc(Cl)ccc2OCC(=O)O)c2ccc(F)cc12 (racemic) [Example 368] | 20.7 nM |
| Cc1nc(COC(=O)N2CCc3c(ccc(F)c3F)[C@H]2c2cc(Cl)ccc2OCC(=O)O)cs1 [Example 304, (S)-1-(2-Carboxymethoxy-5-chloro-phenyl)-5,6-difluoro-3,4-dihydro-1H-isoquinoline-2-carboxylic acid 2-methyl-thiazol-4-ylmethyl ester] | 5.39 nM |

The next lines start with the values.

| IC50 | Compound |
| --- | --- |
| 110 nM | O=C(O)COc1ccc(Cl)cc1C1c2ccccc2CN1C(=O)CCn1ncc2cccc(Cl)c21 (single isomer, unassigned) [Example 536] |
| 55.7 nM | O=C(O)COc1ccc(Cl)cc1C1c2ccccc2CCN1C(=O)CCCN1CCCC1=O (racemic) [Example 440] |
| 12.7 nM | O=C(O)COc1ccc(Cl)cc1C1c2ccccc2CCN1C(=O)CCN1CCc2ccccc21 (racemic) [Example 441] |
| 9.71 nM | COc1cc(OC)c2ccn(CCC(=O)N3CCc4ccccc4C3c3cc(Cl)ccc3OCC(=O)O)c2c1 (racemic) [Example 377] |
| 38.8 nM | O=C(O)COc1ccc(Cl)cc1C1c2ccccc2CN1C(=O)CCN1CCc2ccccc21 (racemic) [Example 514] |
| 704 nM | Cc1nn(CCC(=O)N2Cc3ccccc3C2c2cc(Cl)ccc2OCC(=O)O)c2cccc(F)c12 (single isomer, unassigned) [Example 538, (4-Chloro-2-{2-[3-(4-fluoro-3-methyl-indazol-1-yl)-propionyl]-2,3-dihydro-1H-isoindol-1-yl}-phenoxy)-acetic acid] |
| 11.6 nM | O=C(O)COc1ccc(Cl)cc1C1c2ccccc2CCN1C(=O)CCn1ccc2ccccc21 (racemic) [Example 378] |
| 9.11 nM | O=C(O)COc1ccc(Cl)cc1C1c2ccccc2CN1C(=O)COCc1ccccc1Cl (racemic) [Example 521] |
| 46.6 nM | Cc1cccc([C@@H]2C[C@H]2C(=O)N2CCc3ccccc3C2c2cc(Cl)ccc2OCC(=O)O)c1 (mixture of isomers) [Example 427] |
| 25.7 nM | O=C(O)COc1ccc(Cl)cc1C1c2ccccc2CN1C(=O)NCc1ccc(F)cc1 (racemic) [Example 554] |
| 35.4 nM | O=C(O)COc1ccc(Cl)cc1C1c2ccccc2CCN1C(=O)CCn1ncc2ccccc21 (racemic) [Example 448] |
| 185 nM | Cc1nn(CCC(=O)N2CCc3cc(F)ccc3[C@H]2c2cc(Cl)ccc2OCC(=O)O)c2cc(Cl)ccc12 [Example 394] |
| 30.6 nM | COc1cccc([C@@H]2C[C@H]2C(=O)N2CCc3ccccc3C2c2cc(Cl)ccc2OCC(=O)O)c1 (mixture of isomers) [Example 425] |

Same assay, conditions: antagonistic activity; 3H-PGD2 displacement on HEK293-hCRTH2 membrane fragments

| IC50 | Compound |
| --- | --- |
| 120 nM | CC(C)(C)COC(=O)N1CCc2ccccc2C1c1cc(F)ccc1OCC(=O)O (racemic) [Example 166] |
| 52.3 nM | O=C(O)COc1ccc(Cl)cc1C1c2cccc(F)c2CCN1C(=O)CCCc1ccccc1 (racemic) [Example 121, (±)-{4-Chloro-2-[5-fluoro-2-(4-phenyl-butyryl)-1,2,3,4-tetrahydro-isoquinolin-1-yl]-phenoxy}-acetic acid] |
| 20.6 nM | O=C(O)COc1ccc(Cl)cc1C1c2ccccc2CCN1C(=O)CCCc1ccccc1 (racemic) [Example 107, (±)-{4-Chloro-2-[2-(4-phenyl-butyryl)-1,2,3,4-tetrahydro-isoquinolin-1-yl]-phenoxy}-acetic acid] |
| 4.06 nM | O=C(O)COc1ccc(Cl)cc1C1c2ccccc2CCN1C(=O)COCc1ccccc1Cl (racemic) [Example 106, (±)-(4-Chloro-2-{2-[2-(2-chloro-benzyloxy)-acetyl]-1,2,3,4-tetrahydro-isoquinolin-1-yl}-phenoxy)-acetic acid] |
| 169 nM | O=C(O)COc1ccc(F)cc1C1c2ccccc2CCN1C(=O)Oc1ccccc1Cl (racemic) [Example 170] |
| 983 nM | O=C(O)COc1ccc(F)cc1C1c2ccccc2CCN1C(=O)CNS(=O)(=O)c1ccccc1F (racemic) [Example 208] |
| 134 nM | O=C(O)COc1ccc(Cl)cc1C1c2ccccc2CCN1C(=O)C1CCc2ccccc2C1 (stereo not shown) [Example 77, {4-Chloro-2-[2-(1,2,3,4-tetrahydro-naphthalene-2-carbonyl)-1,2,3,4-tetrahydro-isoquinolin-1-yl]-phenoxy}-acetic acid] |
| 422 nM | O=C(O)COc1ccc(Cl)cc1C1c2ccccc2CCN1C(=O)CCc1nccn1-c1ccccc1 (racemic) [Example 83, (±)-(4-Chloro-2-{2-[3-(1-phenyl-1H-imidazol-2-yl)-propionyl]-1,2,3,4-tetrahydro-isoquinolin-1-yl}-phenoxy)-acetic acid] |
| 6.84 nM | O=C(O)COc1ccc(F)cc1C1c2cc(F)cc(F)c2CCN1C(=O)OCc1ccccc1 (racemic) [Example 42, (±)-1-(2-Carboxymethoxy-5-fluoro-phenyl)-5,7-difluoro-3,4-dihydro-1H-isoquinoline-2-carboxylic acid benzyl ester] |
| 5 nM | O=C(O)COc1ccc(F)cc1C1c2ccccc2CCN1C(=O)OCc1ccccc1Cl (racemic) [Example 165] |
| 27.9 nM | O=C(O)COc1ccc(F)cc1C1c2ccccc2CCN1C(=O)NCc1ccccc1Cl (racemic) [Example 203] |
| 11.2 nM | O=C(O)COc1ccc(Cl)cc1C1c2ccccc2CCN1C(=O)CCCc1ccc(F)cc1 (racemic) [Example 103, (±)-(4-Chloro-2-{2-[4-(4-fluoro-phenyl)-butyryl]-1,2,3,4-tetrahydro-isoquinolin-1-yl}-phenoxy)-acetic acid] |
| 83 nM | O=C(O)COc1ccc(F)cc1C1c2ccccc2CCN1C(=O)NCCc1ccccc1Cl (racemic) [Example 204, (±)-(2-{2-[2-(2-Chloro-phenyl)-ethylcarbamoyl]-1,2,3,4-tetrahydro-isoquinolin-1-yl}-4-fluoro-phenoxy)-acetic acid] |
| 794 nM | O=C(O)COc1ccc(F)cc1C1c2ccccc2CCN1C(=O)Cc1nc2ccccc2[nH]1 (racemic) [Example 62] |
| 76.5 nM | COc1ccccc1CNC(=S)N1CCc2ccccc2C1c1cc(Cl)ccc1OCC(=O)O (racemic) [Example 225, (±)-{4-Chloro-2-[2-(2-methoxy-benzylthiocarbamoyl)-1,2,3,4-tetrahydro-isoquinolin-1-yl]-phenoxy}-acetic acid] |
| 47.7 nM | CC(C)COC(=O)N1CCc2ccccc2C1c1cc(F)ccc1OCC(=O)O (racemic) [Example 171] |
| 13.3 nM | N#Cc1ccc(OCC(=O)O)c(C2c3cc(F)c(F)cc3CCN2C(=O)OCc2ccccc2)c1 (racemic) [Example 11, (±)-1-(2-Carboxymethoxy-5-cyano-phenyl)-6,7-difluoro-3,4-dihydro-1H-isoquinoline-2-carboxylic acid benzyl ester] |
| 123 nM | Cc1ccccc1C1CC1C(=O)N1CCc2ccccc2C1c1cc(Cl)ccc1OCC(=O)O (single isomer, unassigned) [Example 153, (±)-{4-Chloro-2-[2-((trans)-2-o-tolyl-cyclopropanecarbonyl)-1,2,3,4-tetrahydro-isoquinolin-1-yl]-phenoxy}-acetic acid (diastereosiomer 1)] |
| 11 nM | C[C@@H](Oc1ccc(C#N)cc1C1c2ccccc2CCN1C(=O)OCc1ccccc1)C(=O)O (stereo partly drawn) [Example 13, 1-[2-((R)-1-Carboxy-ethoxy)-5-cyano-phenyl]-3,4-dihydro-1H-isoquinoline-2-carboxylic acid benzyl ester] |
| 4.94 nM | O=C(O)COc1ccc(Cl)cc1C1c2cc(F)cc(F)c2CCN1C(=O)OCc1ccccc1 (racemic) [Example 43, (±)-1-(2-Carboxymethoxy-5-chloro-phenyl)-5,7-difluoro-3,4-dihydro-1H-isoquinoline-2-carboxylic acid benzyl ester] |
| 7.9 nM | O=C(O)COc1ccc(F)cc1C1c2cccc(Br)c2CCN1C(=O)OCc1ccccc1 (racemic) [Example 7, (±)-5-Bromo-1-(2-carboxymethoxy-5-fluoro-phenyl)-3,4-dihydro-1H-isoquinoline-2-carboxylic acid benzyl ester] |

Same assay, conditions: radioligand displacement (3H-PGD2), hCRTH2 receptor membranes; antagonistic activity

| IC50 | Compound |
| --- | --- |
| 9.18 nM | O=C(COc1ccc(Cl)cc1[C@@H]1c2ccccc2CCN1C(=O)OCc1ccccc1)NS(=O)(=O)C(F)(F)F [Example 568, (S)-1-[5-Chloro-2-(2-oxo-2-trifluoromethanesulfonylamino-ethoxy)-phenyl]-3,4-dihydro-1H-isoquinoline-2-carboxylic acid benzyl ester] |
